# Reference: US10088490B2, “Assay for analytes using multiple receptors” (Siemens Healthcare Diagnostics Inc., priority 2010, dated 2018)
# Tests used:
# Format in all cases: binding
# [1] = tested on: Antibody A specific for cortisol (clone 16DC/17.7, IgG1κ); assay: LOCI competitive cortisol immunoassay, cross-reactivity screening with Biotinylated Antibody A Reagent; conditions: 100% A Biotinylated Antibody; steroid-stripped serum with cortisol (5 ng/dL)
# Protocol: (§1) The antibodies were subjected to analytical size exclusion chromatography prior to any manipulations.
# (§2) NHS-PEO4-Biotin was dissolved fresh at 10 mg/mL in Antibody Dialysis Buffer. […] The mixture was rocked at 25° C. for exactly 3 hours. A 200 mM solution of glycine was prepared by dissolving 750 mg glycine in Antibody Dialysis Buffer to a total volume of 50 mL. At the end of the 3-hour biotinylation reaction, 1.52 mL of the 200 mM glycine solution was added to the reaction mixture. The quenched reaction mixture was rocked an additional 60 minutes at 25° C.
# (§3) The biotinylated antibody was then purified using preparatory HPLC using Antibody Dialysis Buffer as the mobile phase. […] This reagent was designated as the Biotinylated Antibody Reagent.
# (§4) The assay used for screening purposes was conducted on the DIMENSION® VISTA® instrument (system) (Siemens Healthcare Diagnostics Inc., Newark Del.). Initially, 20 μL Biotinylated Antibody Reagent with 15 μL system water was added to the vessel. After 22 seconds, 15 μL sample with 15 μL system water were added to the vessel. After almost 4 minutes, 20 μL Chemibead Reagent with 15 μL system water were added to the vessel. Approximately 7 minutes later, 20 μL Sensibead Reagent with 135 μL system water was added to the vessel. The LOCI® read was taken after approximately 5 minutes. The assay from the first reagent addition to the final read took approximately 16 minutes. The contents of the vessel when the final read is taken were as follows: 2 ng/mL Biotinylated Antibody Reagent, 4 μg/mL Chemibead Reagent, 56 μg/mL Sensibead Reagent, and […] sample. The assay is a competitive format, which means that the greater the concentration of analyte in the sample, the smaller is the signal generation. This is because a detectable complex is formed by the Biotinylated Antibody Reagent, Chemibead Reagent, and Sensibead Reagent in the absence of analyte. The presence of analyte decreases the proportion of Biotinylated Antibody Reagent that is free to form detectable complexes.
# (§5) Initial testing used Biotinylated Antibody A Reagent with the other reagents and the methodology described above to analyze the steroid-stripped serum with cortisol. The panel of 34 cross-reactants were individually added to the steroid-stripped serum with a defined concentration of cortisol (5 ng/dL) and assayed. Cross-reactivity data were calculated as follows:
# (§6) [formula] The same testing was performed using Biotinylated Antibody L Reagent. The compilation of the percent cross-reactivities for the 34 compounds is referred to as the cross-reactivity profile. The apparent cortisol concentration is the cortisol value obtained when testing a sample containing cortisol and the interfering substance by the above test method that also detects the interfering substance to some degree.
# [2] = tested on: Antibody L specific for cortisol (clone XM210, IgG2a); assay: LOCI competitive cortisol immunoassay, cross-reactivity screening with Biotinylated Antibody L Reagent; conditions: 100% L Biotinylated Antibody; steroid-stripped serum with cortisol (5 ng/dL)
# Protocol: as §1, §2, §3, §4, §5, §6
# [3] = tested on: mixture of Biotinylated Antibody A Reagent and Biotinylated Antibody L Reagent; assay: LOCI competitive cortisol immunoassay, cross-reactivity with mixtures of Biotinylated Antibody A and L Reagents; conditions: for percent cross reactivity: steroid-stripped serum with cortisol
# Protocol: as §4, §5, §6
# A further study was performed by mixing Biotinylated Antibody A Reagent with Biotinylated Antibody L Reagent in a 50:50 mixture; 80% Biotinylated Antibody A Reagent: 20% Biotinylated Antibody L Reagent; 75% Biotinylated Antibody A Reagent: 25% Biotinylated Antibody L Reagent; and 70% Biotinylated Antibody A Reagent: 30% Biotinylated Antibody L Reagent. […] These reagents were used to test cross-reactivity in stripped serum with cortisol.
# [4] = 70% A 30% L Biotinylated Antibody
# [5] = 75% A 25% L Biotinylated Antibody
# [6] = 80% A 20% L Biotinylated Antibody
smiles,measurement,setting,value
C[C@]12CCC(=O)C=C1[C@H](O)C[C@@H]1[C@@H]2[C@@H](O)C[C@@]2(C)[C@H]1CC[C@]2(O)C(=O)CO [6β-hydroxycortisol],percent cross reactivity,[1],2.7%
same,percent cross reactivity,[2],100.0%
same,percent cross reactivity,[3]; [4],6.9%
same,percent cross reactivity,[3]; [5],6.2%
same,percent cross reactivity,[3]; [6],5.5%
C[C@]12C[C@H](O)[C@H]3[C@@H](CCC4=CC(=O)CC[C@@]43C)[C@@H]1CC[C@@H]2C(=O)CO [corticosterone],percent cross reactivity,[1],0.6%
same,percent cross reactivity,[2],3.0%
same,percent cross reactivity,[3]; [4],1.8%
same,percent cross reactivity,[3]; [5],1.5%
same,percent cross reactivity,[3]; [6],1.4%
C[C@]12CCC(=O)C=C1CC[C@@H]1[C@@H]2C(=O)C[C@@]2(C)[C@H]1CC[C@]2(O)C(=O)CO [cortisone],percent cross reactivity,[1],41.7%
same,percent cross reactivity,[2],1.4%
same,percent cross reactivity,[3]; [4],2.5%
same,percent cross reactivity,[3]; [5],2.8%
same,percent cross reactivity,[3]; [6],3.1%
same,decrease of percent cross-reactivity,[3]; incorporation of 25% Biotinylated Antibody Reagent L versus 100% A,greater than 90%
C[C@]12CCC(=O)C=C1CC[C@@H]1[C@@H]2[C@@H](O)C[C@]2(C=O)[C@@H](C(=O)CO)CC[C@@H]12 [Aldosterone],percent cross reactivity,[1],0.3%
same,percent cross reactivity,[2],0.3%
same,percent cross reactivity,[3]; [4],0.3%
same,percent cross reactivity,[3]; [5],0.3%
same,percent cross reactivity,[3]; [6],0.3%
C[C@]12CC[C@@H](O)C[C@H]1CC[C@@H]1[C@@H]2C(=O)C[C@]2(C)C(=O)CC[C@@H]12 [11-ketoetiocholanolone],percent cross reactivity,[1],0.0%
same,percent cross reactivity,[2],0.0%
same,percent cross reactivity,[3]; [4],0.0%
same,percent cross reactivity,[3]; [5],0.0%
same,percent cross reactivity,[3]; [6],0.0%
C[C@]12CCC(=O)C=C1CC[C@@H]1[C@@H]2C(=O)C[C@@]2(C)[C@H]1CC[C@]2(O)[C@H](O)CO [20β-dihydrocortisone],percent cross reactivity,[1],0.1%
same,percent cross reactivity,[2],0.1%
same,percent cross reactivity,[3]; [4],0.1%
same,percent cross reactivity,[3]; [5],0.1%
same,percent cross reactivity,[3]; [6],0.1%
C[C@]12CCC(=O)C=C1CC[C@@H]1[C@@H]2[C@@H](O)C[C@@]2(C)[C@H]1CC[C@]2(O)[C@H](O)CO [20β-dihydrocortisol],percent cross reactivity,[1],0.6%
same,percent cross reactivity,[2],2.1%
same,percent cross reactivity,[3]; [4],1.6%
same,percent cross reactivity,[3]; [5],1.5%
same,percent cross reactivity,[3]; [6],1.3%
C[C@]12CC[C@@H](O)C[C@H]1CC[C@@H]1[C@@H]2[C@@H](O)C[C@@]2(C)[C@H]1CC[C@]2(O)[C@@H](O)CO [α-cortol],percent cross reactivity,[1],0.2%
same,percent cross reactivity,[2],1.0%
same,percent cross reactivity,[3]; [4],0.7%
same,percent cross reactivity,[3]; [5],0.6%
same,percent cross reactivity,[3]; [6],0.5%
C[C@H]1C[C@@H]2[C@H]([C@@H](O)C[C@@]3(C)[C@H]2CC[C@]3(O)C(=O)CO)[C@@]2(C)C=CC(=O)C=C12 [6-methyl-prednisolone],percent cross reactivity,[1],6.4%
same,percent cross reactivity,[2],10.7%
same,percent cross reactivity,[3]; [4],8.3%
same,percent cross reactivity,[3]; [5],7.5%
same,percent cross reactivity,[3]; [6],7.2%
C[C@]12CC(=O)[C@H]3[C@@H](CCC4=CC(=O)CC[C@@]43C)[C@@H]1CC[C@@H]2C(=O)CO [dehydrocorticosterone],percent cross reactivity,[1],0.6%
same,percent cross reactivity,[2],0.8%
same,percent cross reactivity,[3]; [4],0.7%
same,percent cross reactivity,[3]; [5],0.7%
same,percent cross reactivity,[3]; [6],0.7%
